IC50 data for 18 compounds are collected here from US20260015358A1, “BICYCLIC DERIVATIVES, COMPOSITIONS AND USES THEREOF” (Danatlas Pharmaceuticals Co., Ltd., priority 2023, published 2026).

Assay [1] concerns the target T1, WRN [UniPro: Q14191 (WRN_HUMAN), N500-C946] (Homo sapiens (Human), UniProt Q14191). Kind of assay: WRN ATPase assay (ADP-Glo). Type of assay: biochemical. Particulars: WRN enzymatic activity assay.
The target in assay [2] is T1, WRN [UniPro: Q14191 (WRN_HUMAN), N500-C946]. Kind of assay: WRN unwinding assay (FORKF DNA, fluorescence). Type of assay: biochemical. Particulars: Table 14.

T1 sequence (Q14191 500-946): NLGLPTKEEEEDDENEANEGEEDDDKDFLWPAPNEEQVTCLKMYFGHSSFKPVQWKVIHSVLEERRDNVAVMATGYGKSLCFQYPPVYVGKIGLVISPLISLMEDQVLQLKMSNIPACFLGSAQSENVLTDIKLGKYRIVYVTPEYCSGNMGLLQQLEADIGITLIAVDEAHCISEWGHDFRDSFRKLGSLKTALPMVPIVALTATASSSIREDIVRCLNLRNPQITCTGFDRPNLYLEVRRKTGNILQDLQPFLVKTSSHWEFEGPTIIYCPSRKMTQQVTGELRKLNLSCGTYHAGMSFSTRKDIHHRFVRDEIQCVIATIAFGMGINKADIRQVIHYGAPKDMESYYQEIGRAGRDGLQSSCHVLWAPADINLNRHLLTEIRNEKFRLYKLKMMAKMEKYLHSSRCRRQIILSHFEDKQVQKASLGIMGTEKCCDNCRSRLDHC

`CCc1c(N2CCN(C(=O)C(=O)Nc3nccs3)CC2)c(=O)n2nc(C3=CCOCC3)nc2n1CC(=O)Nc1ccc(C(F)(F)F)cc1F` [Example 227, 2-(4-(2-(3,6-Dihydro-2H-pyran-4-yl)-5-ethyl-4-(2-((2-fluoro-4-(trifluoromethyl)phenyl)amino)-2-oxoethyl)-7-oxo-4,7-dihydro-[1,2,4]triazolo[1,5-a]pyrimidin-6-yl)piperazin-1-yl)-2-oxo-N-(thiazol-2-yl)acetamide]: the IC50 in assay [1] and in assay [2] was below 0.1 µM each time.

`CCc1c(N2CCN(C(=O)c3nnc(C(F)(F)F)[nH]3)CC2)c(=O)n2nc(C3=CCOCC3)nc2n1CC(=O)Nc1ccc(C(F)(F)F)cc1F` [Example 311, 2-(2-(3,6-Dihydro-2H-pyran-4-yl)-5-ethyl-7-oxo-6-(4-(5-(trifluoromethyl)-4H-1,2,4-triazole-3-carbonyl)piperazin-1-yl)-[1,2,4]triazolo[1,5-a]pyrimidin-4(7H)-yl)-N-(2-fluoro-4-(trifluoromethyl)phenyl)acetamide]: the IC50 in assay [1] and in assay [2] was below 0.1 µM throughout.

On to `CCc1c(N2CCN(C(=O)CNC(=O)c3ccnc(O)c3)CC2)c(=O)n2nc(C3=CCOCC3)nc2n1CC(=O)Nc1ccc(C(F)(F)F)cc1Cl` [Example 279, N-(2-(4-(4-(2-((2-Chloro-4-(trifluoromethyl)phenyl)amino)-2-oxoethyl)-2-(3,6-dihydro-2H-pyran-4-yl)-5-ethyl-7-oxo-4,7-dihydro-[1,2,4]triazolo[1,5-a]pyrimidin-6-yl)piperazin-1-yl)-2-oxoethyl)-2-hydroxyisonicotinamide], for which the IC50 in assay [1] and in assay [2] was below 0.1 µM throughout.

Turning to `CCc1c(N2CCN(C(=O)CNC(=O)c3ccc(OC)cc3F)CC2)c(=O)n2nc(C3=CCOCC3)nc2n1CC(=O)Nc1ccc(C(F)(F)F)cc1Cl` [Example 379, N-(2-(4-(4-(2-((2-Chloro-4-(trifluoromethyl)phenyl)amino)-2-oxoethyl)-2-(3,6-dihydro-2H-pyran-4-yl)-5-ethyl-7-oxo-4,7-dihydro-[1,2,4]triazolo[1,5-a]pyrimidin-6-yl)piperazin-1-yl)-2-oxoethyl)-2-fluoro-4-methoxybenzamide], the IC50 in assay [1] and in assay [2] was below 0.1 µM in each case.

For `CCc1c(N2CCN(C(=O)CNC(=O)c3ccccc3F)CC2)c(=O)n2nc(C3=CCOCC3)nc2n1CC(=O)Nc1ccc(F)cc1F` [Example 150, N-(2-(4-(4-(2-((2,4-Difluorophenyl)amino)-2-oxoethyl)-2-(3,6-dihydro-2H-pyran-4-yl)-5-ethyl-7-oxo-4,7-dihydro-[1,2,4]triazolo[1,5-a]pyrimidin-6-yl)piperazin-1-yl)-2-oxoethyl)-2-fluorobenzamide], the IC50 in assay [1] and in assay [2] was below 0.1 µM throughout.

Take `CCc1c(N2CCN(C(=O)CNC(=O)c3ccccc3)CC2)c(=O)n2nc(C3=CCOCC3)nc2n1CC(=O)Nc1ccc(C(F)(F)F)cc1Cl` [Example 93, N-(2-(4-(4-(2-((2-Chloro-4-(trifluoromethyl)phenyl)amino)-2-oxoethyl)-2-(3,6-dihydro-2H-pyran-4-yl)-5-ethyl-7-oxo-4,7-dihydro-[1,2,4]triazolo[1,5-a]pyrimidin-6-yl)piperazin-1-yl)-2-oxoethyl)benzamide]: the half-inhibitory concentration (IC50) in assay [1] and in assay [2] was below 0.1 µM in each case.

Regarding `CCc1c(N2CCN(C(=O)CNC(=O)C(C)(C)C)CC2)c(=O)n2nc(C3=CCOCC3)nc2n1CC(=O)Nc1ccc(C(F)(F)F)cc1Cl` [Example 169, N-(2-(4-(4-(2-((2-Chloro-4-(trifluoromethyl)phenyl)amino)-2-oxoethyl)-2-(3,6-dihydro-2H-pyran-4-yl)-5-ethyl-7-oxo-4,7-dihydro-[1,2,4]triazolo[1,5-a]pyrimidin-6-yl)piperazin-1-yl)-2-oxoethyl)pivalamide], the IC50 is 0.1 to 1 µM in assay [1] and below 0.1 µM in assay [2].

In the case of `CCc1c(N2CCN(C(=O)c3cnc4[nH]ncc4c3O)CC2)c(=O)n2nc(C3=CCOCC3)nc2n1CC(=O)Nc1ccc(C(F)(F)F)cc1Cl` [Example 3, N-(2-Chloro-4-(trifluoromethyl)phenyl)-2-(2-(3,6-dihydro-2H-pyran-4-yl)-5-ethyl-6-(4-(4-hydroxy-1H-pyrazolo[3,4-b]pyridine-5-carbonyl)piperazin-1-yl)-7-oxo-[1,2,4]triazolo[1,5-a]pyrimidin-4(7H)-yl)acetamide], the half-maximal inhibitory concentration (IC50) in assay [1] and in assay [2] was below 0.1 µM in each case.

With `CCc1c(N2CCN(C(=O)c3sc4ncccc4c3O)CC2)c(=O)n2nc(C3=CCOCC3)nc2n1CC(=O)Nc1ccc(C(F)(F)F)cc1Cl` [Example 87, N-(2-Chloro-4-(trifluoromethyl)phenyl)-2-(2-(3,6-dihydro-2H-pyran-4-yl)-5-ethyl-6-(4-(3-hydroxythieno[2,3-b]pyridine-2-carbonyl)piperazin-1-yl)-7-oxo-[1,2,4]triazolo[1,5-a]pyrimidin-4(7H)-yl)acetamide], the IC50 in assay [1] and in assay [2] was below 0.1 µM throughout.

On to `CCc1c(N2CCN(C(=O)c3cnc4[nH]cnc4c3O)CC2)c(=O)n2nc(C3=CCOCC3)nc2n1CC(=O)Nc1ccc(C(F)(F)F)cc1Cl` [Example 57, N-(2-Chloro-4-(trifluoromethyl)phenyl)-2-(2-(3,6-dihydro-2H-pyran-4-yl)-5-ethyl-6-(4-(7-hydroxy-3H-imidazo[4,5-b]pyridine-6-carbonyl)piperazin-1-yl)-7-oxo-[1,2,4]triazolo[1,5-a]pyrimidin-4(7H)-yl)acetamide], for which the IC50 in assay [1] and in assay [2] was below 0.1 µM throughout.

On to `CCc1c(N2CCN(C(=O)CNC(=O)c3cc(N(C)C)ccc3F)CC2)c(=O)n2nc(C3=CCOCC3)nc2n1CC(=O)Nc1ccc(C(F)(F)F)cc1Cl` [Example 212, N-(2-(4-(4-(2-((2-Chloro-4-(trifluoromethyl)phenyl)amino)-2-oxoethyl)-2-(3,6-dihydro-2H-pyran-4-yl)-5-ethyl-7-oxo-4,7-dihydro-[1,2,4]triazolo[1,5-a]pyrimidin-6-yl)piperazin-1-yl)-2-oxoethyl)-5-(dimethylamino)-2-fluorobenzamide], for which the IC50 in assay [1] and in assay [2] was 0.1 to 1 µM throughout.

As for `CCc1c(N2CCN(C(=O)C(=O)Nc3nc(C)cs3)CC2)c(=O)n2nc(C3=CCOCC3)nc2n1CC(=O)Nc1ccc(C(F)(F)F)cc1Cl` [Example 347, 2-(4-(4-(2-((2-Chloro-4-(trifluoromethyl)phenyl)amino)-2-oxoethyl)-2-(3,6-dihydro-2H-pyran-4-yl)-5-ethyl-7-oxo-4,7-dihydro-[1,2,4]triazolo[1,5-a]pyrimidin-6-yl)piperazin-1-yl)-N-(4-methylthiazol-2-yl)-2-oxoacetamide], the IC50 in assay [1] and in assay [2] was below 0.1 µM in each case.

As to `CCc1c(N2CCN(C(=O)c3ncc(F)cc3N)CC2)c(=O)n2nc(C3=CCOCC3)nc2n1CC(=O)Nc1ccc(C(F)(F)F)cc1Cl` [Example 46, 2-(6-(4-(3-Amino-5-fluoropicolinoyl)piperazin-1-yl)-2-(3,6-dihydro-2H-pyran-4-yl)-5-ethyl-7-oxo-[1,2,4]triazolo[1,5-a]pyrimidin-4(7H)-yl)-N-(2-chloro-4-(trifluoromethyl)phenyl)acetamide], the IC50 in assay [1] was 0.1 to 1 µM; in assay [2], below 0.1 µM.

`CCc1c(N2CCN(C(=O)CNC(=O)Cc3cscn3)CC2)c(=O)n2nc(C3=CCOCC3)nc2n1CC(=O)Nc1ccc(C(F)(F)F)cc1Cl` [Example 276, N-(2-Chloro-4-(trifluoromethyl)phenyl)-2-(2-(3,6-dihydro-2H-pyran-4-yl)-5-ethyl-7-oxo-6-(4-((2-(thiazol-4-yl)acetyl)glycyl)piperazin-1-yl)-[1,2,4]triazolo[1,5-a]pyrimidin-4(7H)-yl)acetamide]: the IC50 in assay [1] and in assay [2] was below 0.1 µM throughout.

As for `CCc1c(N2CCN(C(=O)c3nc4cnccn4c3O)CC2)c(=O)n2nc(C3=CCOCC3)nc2n1CC(=O)Nc1ccc(C(F)(F)F)cc1Cl` [Example 75, N-(2-Chloro-4-(trifluoromethyl)phenyl)-2-(2-(3,6-dihydro-2H-pyran-4-yl)-5-ethyl-6-(4-(3-hydroxyimidazo[1,2-a]pyrazine-2-carbonyl)piperazin-1-yl)-7-oxo-[1,2,4]triazolo[1,5-a]pyrimidin-4(7H)-yl)acetamide], the IC50 in assay [1] was 0.1 to 1 µM; in assay [2] it was below 0.1 µM.

Take `CCc1c(N2CCN(C(=O)CNC(=O)c3ncncc3O)CC2)c(=O)n2nc(C3=CCOCC3)nc2n1CC(=O)Nc1ccc(C(F)(F)F)cc1Cl` [Example 364, N-(2-(4-(4-(2-((2-Chloro-4-(trifluoromethyl)phenyl)amino)-2-oxoethyl)-2-(3,6-dihydro-2H-pyran-4-yl)-5-ethyl-7-oxo-4,7-dihydro-[1,2,4]triazolo[1,5-a]pyrimidin-6-yl)piperazin-1-yl)-2-oxoethyl)-5-hydroxypyrimidine-4-carboxamide]: the IC50 in assay [1] and in assay [2] was below 0.1 µM each time.

Take `CCc1c(N2CCN(C(=O)CNC(=O)NC3CC3)CC2)c(=O)n2nc(C3=CCOCC3)nc2n1CC(=O)Nc1ccc(C(F)(F)F)cc1Cl` [Example 184, N-(2-Chloro-4-(trifluoromethyl)phenyl)-2-(6-(4-((cyclopropylcarbamoyl)glycyl)piperazin-1-yl)-2-(3,6-dihydro-2H-pyran-4-yl)-5-ethyl-7-oxo-[1,2,4]triazolo[1,5-a]pyrimidin-4(7H)-yl)acetamide]: the IC50 in assay [1] and in assay [2] was below 0.1 µM each time.

For the compound `CCc1c(N2CCN(C(=O)c3cnc4sc(Br)cc4c3O)CC2)c(=O)n2nc(C3=CCOCC3)nc2n1CC(=O)Nc1ccc(C(F)(F)F)cc1F` [Example 297, 2-(6-(4-(2-Bromo-4-hydroxythieno[2,3-b]pyridine-5-carbonyl)piperazin-1-yl)-2-(3,6-dihydro-2H-pyran-4-yl)-5-ethyl-7-oxo-[1,2,4]triazolo[1,5-a]pyrimidin-4(7H)-yl)-N-(2-fluoro-4-(trifluoromethyl)phenyl)acetamide], the concentration for half-maximal inhibition (IC50) in assay [1] and in assay [2] was below 0.1 µM throughout.
